In publication PMC6585620 (Clinical Pharmacology and Therapeutics, 2018):
Where two headings read alike, the source gives them in different places.

Assays:
CYP3A4 [1] = test: In vitro CYP3A4 induction; format: in vitro ADME, human
[2] = PBPK model parameters estimated or predicted in Simcyp; design: species or system human; conditions: for CYP3A CLint: retrograde approach
[3] = Physicochemical properties; conditions: PBPK input
[4] = tablet 300 mg bid, cited from earlier work
CYP3A4 [5] = biological target: T1, CYP3A4 (Homo sapiens, UniProt P08684); test: In vitro CYP3A4 time-dependent inhibition; format: in vitro ADME; conditions: measured data
[6] = PKPD exposure-response analysis of SOLO2; format: in vivo, human; conditions: for a 50% increase in exposure to olaparib
UGT1A1 [7] = biological target: T2, UGT1A1 (Homo sapiens, UniProt P22309); conditions: read-out: UGT1A1 inhibition IC50; in vitro; cited from earlier work
T2 sequence (P22309 26-533): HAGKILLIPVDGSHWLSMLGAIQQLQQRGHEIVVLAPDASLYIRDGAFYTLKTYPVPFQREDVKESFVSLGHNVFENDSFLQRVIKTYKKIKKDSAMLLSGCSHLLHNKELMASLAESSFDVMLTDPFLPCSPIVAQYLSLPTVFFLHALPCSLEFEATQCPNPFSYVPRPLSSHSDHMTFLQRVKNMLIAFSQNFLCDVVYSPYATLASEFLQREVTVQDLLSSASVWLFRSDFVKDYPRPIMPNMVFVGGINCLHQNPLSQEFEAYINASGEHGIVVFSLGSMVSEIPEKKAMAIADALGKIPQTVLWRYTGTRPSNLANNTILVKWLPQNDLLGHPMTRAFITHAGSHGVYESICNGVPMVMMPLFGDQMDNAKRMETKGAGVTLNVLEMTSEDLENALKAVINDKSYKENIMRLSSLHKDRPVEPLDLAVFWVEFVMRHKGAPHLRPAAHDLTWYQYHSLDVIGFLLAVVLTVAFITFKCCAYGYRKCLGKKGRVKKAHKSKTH

UGT1A1 [8] = biological target: T2, UGT1A1; test: In vitro UGT1A1 inhibition; format: in vitro ADME; conditions: UGT1A1 (Ki=IC50/2), measured data
[9] = Blood-to-plasma ratio and plasma unbound fraction; format: in vitro ADME
[10] = observed, cited from earlier work
CYP3A4 [11] = biological target: T1, CYP3A4; test: In vitro CYP3A4 reversible inhibition; format: in vitro ADME
P‐glycoprotein (P‐gp) [12] = biological target: T3, P‐glycoprotein (P‐gp) (Homo sapiens, UniProt P08183); conditions: read-out: P‐gp inhibition IC50; in vitro; cited from earlier work
[13] = Mass balance ADME study with [14C]-olaparib; format: in vivo, human; conditions: Figure S1
[14] = cited from earlier work; for Increase in AUC vs normal renal function / Increase in Cmax vs normal renal function: single oral 300 mg tablet
P‐glycoprotein (P‐gp) [15] = biological target: T3, P‐glycoprotein (P‐gp); test: In vitro P-gp inhibition; format: in vitro ADME
[16] = capsule model, estimated based on clinical data
[17] = adults SOLO2 (observed), ref SOLO2 (NCT01874353)
[18] = capsule 400 mg single dose, arithmetic mean (min–max)
[19] = tablet 300 mg bid multiple dose

T1 sequence (P08684 whole entry): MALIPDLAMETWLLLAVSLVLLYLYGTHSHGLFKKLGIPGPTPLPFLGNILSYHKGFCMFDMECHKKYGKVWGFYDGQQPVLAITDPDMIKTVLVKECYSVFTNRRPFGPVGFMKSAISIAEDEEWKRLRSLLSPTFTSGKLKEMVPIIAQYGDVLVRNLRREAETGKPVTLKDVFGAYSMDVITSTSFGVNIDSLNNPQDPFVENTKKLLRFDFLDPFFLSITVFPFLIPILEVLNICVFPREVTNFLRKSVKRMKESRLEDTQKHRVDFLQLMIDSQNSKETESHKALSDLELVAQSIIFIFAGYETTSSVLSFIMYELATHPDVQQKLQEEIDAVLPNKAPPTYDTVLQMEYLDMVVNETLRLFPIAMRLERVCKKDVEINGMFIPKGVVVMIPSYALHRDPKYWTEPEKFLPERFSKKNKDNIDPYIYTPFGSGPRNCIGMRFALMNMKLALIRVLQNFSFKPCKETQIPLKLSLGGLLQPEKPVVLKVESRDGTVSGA
T3 sequence (P08183 whole entry): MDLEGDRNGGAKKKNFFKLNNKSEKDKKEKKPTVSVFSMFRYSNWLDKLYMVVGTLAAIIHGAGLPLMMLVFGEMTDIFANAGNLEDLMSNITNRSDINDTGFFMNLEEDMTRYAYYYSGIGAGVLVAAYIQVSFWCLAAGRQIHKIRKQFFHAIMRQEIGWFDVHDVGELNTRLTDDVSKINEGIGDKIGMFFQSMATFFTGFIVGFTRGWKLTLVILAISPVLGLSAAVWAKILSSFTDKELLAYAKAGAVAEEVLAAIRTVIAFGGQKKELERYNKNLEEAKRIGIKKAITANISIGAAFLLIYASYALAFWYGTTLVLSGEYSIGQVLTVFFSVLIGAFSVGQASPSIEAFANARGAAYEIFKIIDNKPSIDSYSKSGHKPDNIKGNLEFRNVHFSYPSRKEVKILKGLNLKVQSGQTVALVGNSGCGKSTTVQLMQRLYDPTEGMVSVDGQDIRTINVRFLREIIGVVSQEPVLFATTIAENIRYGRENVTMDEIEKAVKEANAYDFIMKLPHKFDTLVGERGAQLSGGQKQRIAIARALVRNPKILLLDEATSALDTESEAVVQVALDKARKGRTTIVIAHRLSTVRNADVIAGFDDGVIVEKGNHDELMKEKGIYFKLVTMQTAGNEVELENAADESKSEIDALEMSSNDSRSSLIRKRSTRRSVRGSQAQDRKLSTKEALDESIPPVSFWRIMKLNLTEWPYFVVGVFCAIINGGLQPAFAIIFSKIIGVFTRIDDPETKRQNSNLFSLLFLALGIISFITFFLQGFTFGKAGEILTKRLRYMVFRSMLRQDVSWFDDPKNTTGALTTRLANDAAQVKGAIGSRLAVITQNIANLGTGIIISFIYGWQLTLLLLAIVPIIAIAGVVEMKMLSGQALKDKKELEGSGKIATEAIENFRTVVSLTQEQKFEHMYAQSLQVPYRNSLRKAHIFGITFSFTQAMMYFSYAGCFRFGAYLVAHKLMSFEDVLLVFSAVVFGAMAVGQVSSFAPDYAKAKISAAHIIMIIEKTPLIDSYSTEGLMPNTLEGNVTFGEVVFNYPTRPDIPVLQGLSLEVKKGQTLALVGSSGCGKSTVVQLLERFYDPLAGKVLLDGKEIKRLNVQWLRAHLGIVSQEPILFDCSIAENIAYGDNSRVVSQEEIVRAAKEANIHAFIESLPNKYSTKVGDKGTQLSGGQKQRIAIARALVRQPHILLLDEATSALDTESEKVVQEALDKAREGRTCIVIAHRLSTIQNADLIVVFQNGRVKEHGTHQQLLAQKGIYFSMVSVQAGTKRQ

## O=C(c1cc(Cc2n[nH]c(=O)c3ccccc23)ccc1F)N1CCN(C(=O)C2CC2)CC1 [Olaparib]
CYP3A4 [1]; human
  EC50: 17.7 µM
CYP3A4 [1]; measured data
  CYP3A4 induction Emax: 48.1 (measured data) fold
[2]; [16]
  CLpo: 6.07 (estimated based on clinical data) L/h
  Peff,man: 644 ×10⁻⁶ cm/s (estimated based on clinical data)
[2]; capsule model
  CYP3A CLint: 0.0412 (retrograde approach) µL/min/pmol of isoform
[2]; tablet model, estimated based on clinical data
  CLpo: 7.6 (estimated based on clinical data) L/h
[2]; tablet model
  CYP3A CLint: 0.057 (retrograde approach) µL/min/pmol of isoform
[3]
  pKa: Neutral
[3]; measured data
  Log P: 1.55 (measured data)
[4]; adults OlympiAD (observed), ref OlympiAD (NCT02000622)
  Geometric mean AUC (95% CI): 41.2 (36.1‐47.0) h·µg/mL
[4]; [17]
  Geometric mean AUC (95% CI): 40.7 (37.7–44.0) h·µg/mL
  Geometric mean Cmax (95% CI): 7.12 (6.75–7.51) μg/mL
CYP3A4 [5]
  CYP3A4 TDI KI: 72.2 (measured data) μM
[6]
  Predicted drop in hemoglobin level: ~17.5%
UGT1A1 [7]
  IC50: 96.7 µM
UGT1A1 [8]
  Ki: 48.4 µM
[9]; fraction unbound in plasma, measured data
  fu,plasma: 0.181 (measured data)
[9]; human, plasma
  fraction unbound: 0.181
[10]; [18]
  AUCt (range): 56.2 (21.9–299) h·µg/mL
  Cmax (range): 4.44 (3–15) µg/mL
[10]; [19]
  AUCss (range): 63.8 (25.5–189) h·µg/mL
  Cmax (range): 9.71 (4.8–24.9) µg/mL
[10]; tablet 300 mg single dose, arithmetic mean (min–max)
  Cmax (range): 7.41 (2.6–19.1) µg/mL
CYP3A4 [11]
  Ki: 59.5 µM
P‐glycoprotein (P‐gp) [12]
  IC50: 76 µM
[13]
  Share of total clearance by oxidation via CYP3A4/5: 84%
  Share of total clearance by renal elimination: 16%
[14]; based on clinical data, ref NCT01894256
  Renal clearance: 1.48 (based on clinical data: NCT01894256) L/h
[14]; mild and moderate hepatic impairment
  Change in AUC and Cmax vs normal hepatic function: < 15%
[14]; mild renal impairment
  Increase in AUC vs normal renal function: 24%
  Increase in Cmax vs normal renal function: 15%
[14]; moderate renal impairment
  Increase in AUC vs normal renal function: 44%
  Increase in Cmax vs normal renal function: 26%
P‐glycoprotein (P‐gp) [15]
  Ki: 73.9 µM
